# Experimental data as given in patent US20250171431A1, “HETEROCYCLIC INHIBITORS OF IGF-1R FOR TREATMENT OF DISEASE” (HORIZON THERAPEUTICS IRELAND DAC, priority 2023, published 2025).
# Biological target: IGF-1R (Homo sapiens (Human), UniProt P08069)
# Assay: Example B-1: IGF-1R Assay (PC3 cells, IGF1 stimulation, AlphaLISA)
# Type: cell-based
# Settings: 200 ng/mL IGF1 stimulation, read-out: Biological Activity against IGF-1R IC50
# Summary of the method: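 PC3 cells were serum-starved 2 h, treated with serially diluted compounds for 2 h, then stimulated with IGF1 (200 ng/mL final) for 30 min. Lysates were read by AlphaLISA; % inhibition was calculated relative to vehicle and EC80 controls, with IC50 values binned into ranges.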
# Chain of IGF-1R (P08069 31-1367): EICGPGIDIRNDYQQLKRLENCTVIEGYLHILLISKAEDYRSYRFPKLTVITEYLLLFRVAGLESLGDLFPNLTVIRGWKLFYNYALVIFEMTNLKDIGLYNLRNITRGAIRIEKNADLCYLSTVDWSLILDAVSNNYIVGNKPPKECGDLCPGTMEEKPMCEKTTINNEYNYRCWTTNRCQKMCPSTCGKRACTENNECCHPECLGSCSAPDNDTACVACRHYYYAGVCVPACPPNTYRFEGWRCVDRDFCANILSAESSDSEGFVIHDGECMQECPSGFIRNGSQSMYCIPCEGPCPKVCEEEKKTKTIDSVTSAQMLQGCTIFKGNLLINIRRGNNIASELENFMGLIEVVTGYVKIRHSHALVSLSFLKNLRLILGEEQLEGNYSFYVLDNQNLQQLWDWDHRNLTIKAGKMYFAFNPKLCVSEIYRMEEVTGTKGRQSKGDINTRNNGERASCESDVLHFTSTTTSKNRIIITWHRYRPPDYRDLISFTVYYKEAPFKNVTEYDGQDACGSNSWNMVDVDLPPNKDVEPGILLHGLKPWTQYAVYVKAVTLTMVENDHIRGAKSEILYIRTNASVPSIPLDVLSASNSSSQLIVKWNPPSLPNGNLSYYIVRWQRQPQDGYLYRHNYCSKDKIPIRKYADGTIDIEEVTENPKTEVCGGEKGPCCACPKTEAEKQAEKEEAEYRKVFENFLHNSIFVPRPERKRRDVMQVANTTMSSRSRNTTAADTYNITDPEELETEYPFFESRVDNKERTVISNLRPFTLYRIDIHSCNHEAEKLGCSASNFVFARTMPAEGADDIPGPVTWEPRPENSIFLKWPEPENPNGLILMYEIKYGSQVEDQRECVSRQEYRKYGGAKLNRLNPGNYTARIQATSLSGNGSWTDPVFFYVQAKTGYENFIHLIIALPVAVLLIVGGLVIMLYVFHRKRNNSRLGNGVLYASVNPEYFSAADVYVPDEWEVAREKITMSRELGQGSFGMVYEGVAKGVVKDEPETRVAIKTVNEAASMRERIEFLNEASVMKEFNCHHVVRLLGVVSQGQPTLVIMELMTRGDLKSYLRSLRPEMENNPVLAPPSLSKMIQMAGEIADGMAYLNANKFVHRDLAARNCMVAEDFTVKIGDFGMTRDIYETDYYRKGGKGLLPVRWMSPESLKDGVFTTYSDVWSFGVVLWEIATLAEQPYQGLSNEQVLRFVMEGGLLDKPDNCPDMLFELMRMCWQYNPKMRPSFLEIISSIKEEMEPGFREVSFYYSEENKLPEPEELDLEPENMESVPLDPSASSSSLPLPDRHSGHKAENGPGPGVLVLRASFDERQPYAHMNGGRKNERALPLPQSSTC
row,SMILES,IC50
1,"COc1cc(Nc2nccc(Nc3cc4cccc(F)c4[nH]c3=O)n2)cnc1N1CCOC(C)(C)C1 [Compound 160, 3-((2-((6-(2,2-dimethylmorpholino)-5-methoxypyridin-3-yl)amino)pyrimidin-4-yl)amino)-8-fluoroquinolin-2(1H)-one]",≤ 500 nM
2,"COCCN(C)[C@H]1C[C@@H](Oc2ccc(Nc3nccc(Nc4cnc5cc(F)c(F)cc5c4)n3)cc2OC)C1 [Compound 47, 4-(6,7-difluoro-3-quinolylamino)-2-(3-methoxy-4-{(1s,3s)-3-[(2-methoxyethyl)-N-methylamino]cyclobutoxy}phenylamino)pyrimidine]",≤ 500 nM
3,"COc1cc(Nc2nccc(Nc3cnc4ccc(C5CC5)cc4c3)n2)ccc1OCCCN1CCCCC1 [Compound 102, 4-(6-cyclopropyl-3-quinolylamino)-2-[3-methoxy-4-(3-piperidinopropoxy)phenylamino]pyrimidine]",≤ 500 nM
4,"COc1cc(Nc2nccc(Nc3cnc4cc[nH]c4c3)n2)ccc1O[C@H]1C[C@@H](N(C)C)C1 [Compound 299, 4-(1H-1,4-diazainden-6-ylamino)-2-{3-methoxy-4-[(1s,3s)-3-(dimethylamino)cyclobutoxy]phenylamino}pyrimidine]",500 to 2000 nM
5,"COc1cc(Nc2nccc(Nc3cnc4c(c3)CCCC4)n2)ccc1OCCCN1CCCCC1 [Compound 374, 2-[3-methoxy-4-(3-piperidinopropoxy)phenylamino]-4-(5,6,7,8-tetrahydro-3-quinolylamino)pyrimidine]",≤ 500 nM
6,"COc1cc(Nc2ncc(F)c(Nc3cc4ccccc4nc3C(N)=O)n2)cnc1O[C@H]1C[C@@H](N(C)C)C1 [Compound 255, 3-(5-fluoro-2-{5-methoxy-6-[(1s,3s)-3-(dimethylamino)cyclobutoxy]-3-pyridylamino}-4-pyrimidinylamino)-2-quinolinecarboxamide]",≤ 500 nM
7,"COc1cc(Nc2nccc(Nc3cnc4c(c3)CCCC4(C)C)n2)ccc1OCCCN1CCCCC1 [Compound 73, 4-(8,8-dimethyl-5,6,7,8-tetrahydro-3-quinolylamino)-2-[3-methoxy-4-(3-piperidinopropoxy)phenylamino] pyrimidine]",≤ 500 nM
8,"CN(C)[C@H]1C[C@H](Oc2ccc(Nc3nccc(Nc4cnc5ccccc5c4)n3)cc2C(F)(F)F)C1 [Compound 36, 4-(3-quinolylamino)-2-{4-[(1r,3r)-3-(dimethylamino)cyclobutoxy]-3-(trifluoromethyl)phenylamino} pyrimidine]",≤ 500 nM
9,O=S1(=O)CCN([C@H]2C[C@H](Oc3ccc(Nc4nccc(Nc5cnc6ccc(Br)cc6c5)n4)cc3)C2)CC1 [Compound 347],≤ 500 nM
10,"COc1cc(Nc2nccc(Nc3cnc4cccc(F)c4c3)n2)ccc1OCCCN1CCCCC1 [Compound 423, 4-(5-fluoro-3-quinolylamino)-2-[3-methoxy-4-(3-piperidinopropoxy)phenylamino]pyrimidine]",≤ 500 nM
11,"c1ccc2ncc(Nc3ccnc(Nc4ccc(O[C@H]5C[C@@H](N6CCCCC6)C5)cc4)n3)cc2c1 [Compound 363, 4-(3-quinolylamino)-2-{p-[(1s,3s)-3-piperidinocyclobutoxy]phenylamino}pyrimidine]",≤ 500 nM
12,"COc1cc(Nc2nccc(Nc3cnc4cc(F)cnc4c3)n2)ccc1O[C@H]1C[C@@H](N(C)C)C1 [Compound 272, 4-(7-fluoro-1,5-diaza-3-naphthylamino)-2-{3-methoxy-4-[(1s,3s)-3-(dimethylamino)cyclobutoxy]phenylamino}pyrimidine]",≤ 500 nM
13,"CN(C)[C@H]1C[C@H](Oc2ccc(Nc3nccc(Nc4cnc5ccccc5c4)n3)cc2Cl)C1 [Compound 35, 2-{3-chloro-4-[(1r,3r)-3-(dimethylamino)cyclobutoxy]phenylamino}-4-(3-quinolylamino)pyrimidine]",≤ 500 nM
14,"COc1cc(Nc2nccc(Nc3cnc4ccc(F)cc4c3)n2)ccc1OCCCN1CCCCC1 [Compound 427, 4-(6-fluoro-3-quinolylamino)-2-[3-methoxy-4-(3-piperidinopropoxy)phenylamino]pyrimidine]",≤ 500 nM
15,"c1cc(Nc2cnc3cc(C4CC4)ccc3c2)nc(Nc2ccc(OCCCN3CCOCC3)cc2)n1 [Compound 405, 4-(7-cyclopropyl-3-quinolylamino)-2-[p-(3-morpholinopropoxy)phenylamino]pyrimidine]",2000 to 10000 nM
16,"COc1cc(Nc2nccc(Nc3cnc4c(OC)cccc4c3)n2)ccc1O[C@H]1C[C@@H](N(C)C)C1 [Compound 312, 4-(8-methoxy-3-quinolylamino)-2-{3-methoxy-4-[(1s,3s)-3-(dimethylamino)cyclobutoxy]phenylamino}pyrimidine]",≤ 500 nM
17,"COc1nc(N2CCC(C)(O)CC2)ccc1Nc1nccc(Nc2cnc3cc(F)c(F)cc3c2)n1 [Compound 487, 1-{5-[4-(6,7-difluoro-3-quinolylamino)-2-pyrimidinylamino]-6-methoxy-2-pyridyl}-4-methyl-4-piperidinol]",≤ 500 nM
18,"COc1cc(Nc2nccc(Nc3cnc4cc(F)c(F)cc4c3)n2)cnc1N1CC(N(C)C)C1 [Compound 48, 4-(6,7-difluoro-3-quinolylamino)-2-{6-[3-(dimethylamino)-1-azetidinyl]-5-methoxy-3-pyridylamino}pyrimidine]",≤ 500 nM
19,"CN(C)CC(=O)N1CCc2cc(Nc3nccc(Nc4cc5cccc(F)c5[nH]c4=O)n3)ccc21 [Compound 151, 3-((2-((1-(dimethylglycyl)indolin-5-yl)amino)pyrimidin-4-yl)amino)-8-fluoroquinolin-2(1H)-one]",≤ 500 nM
20,"COc1cc(Nc2nccc(Nc3cnc4cc(Cl)ccc4c3)n2)ccc1O[C@H]1C[C@@H](N(C)C)C1 [Compound 342, 4-(7-chloro-3-quinolylamino)-2-{3-methoxy-4-[(1s,3s)-3-(dimethylamino)cyclobutoxy]phenylamino}pyrimidine]",≤ 500 nM
21,"COc1cc(Nc2nccc(Nc3cnc4c(c3)CS(=O)(=O)CC4)n2)ccc1OCCCN1CCCCC1 [Compound 391, 3-{2-[3-methoxy-4-(3-piperidinopropoxy)phenylamino]-4-pyrimidinylamino}-5,6,7,8-tetrahydro-6H,6H-6λ^6-thia-1-azanaphthalene-6,6-dione]",2000 to 10000 nM
22,"COc1cc(Nc2nccc(Nc3cnc4ccc(O)cc4c3)n2)ccc1O[C@H]1C[C@H](N(C)C)C1 [Compound 330, 3-(2-{3-methoxy-4-[(1r,3r)-3-(dimethylamino)cyclobutoxy]phenylamino}-4-pyrimidinylamino)-6-quinolinol]",≤ 500 nM
23,"COc1cc(Nc2nccc(Nc3cnc4c(F)cc(F)cc4c3)n2)cnc1O[C@H]1C[C@@H](N(C)C)C1 [Compound 290, 4-(6,8-difluoro-3-quinolylamino)-2-{5-methoxy-6-[(1s,3s)-3-(dimethylamino)cyclobutoxy]-3-pyridylamino}pyrimidine]",≤ 500 nM
24,"CC1(C)CCc2ncc(Nc3ccnc(Nc4ccc(OCCCN5CCOCC5)cc4)n3)cc2C1 [Compound 63, 4-(6,6-dimethyl-5,6,7,8-tetrahydro-3-quinolylamino)-2-[p-(3-morpholinopropoxy)phenylamino] pyrimidine]",≤ 500 nM
25,"COc1cc(Nc2nccc(Nc3cnc(O[C@H]4CCCC[C@H]4O)c(F)c3)n2)ccc1O[C@H]1C[C@@H](N(C)C)C1 [Compound 180, (1R,2S)-2-[3-fluoro-5-(2-{3-methoxy-4-[(1s,3R)-3-(dimethylamino)cyclobutoxy]phenylamino}-4-pyrimidinylamino)-2-pyridyloxy]cyclohexanol]",≤ 500 nM
